# Data reported in patent publication US20100286181A1, “PYRROLE DERIVATIVES WITH ANTIBACTERIAL ACTIVITY” (ASTRAZENECA AB, priority 2006, published 2010).
# Key:
# [1] = tested on: Streptococcus pneumoniae; test: Bacterial susceptibility testing in liquid media (MIC), Streptococcus pneumoniae; format: cell-based; conditions: against Streptococcus pneumoniae; lowest concentration reducing growth by 80% or more, 37° C., 24 hrs
# From the text: (§1) Compounds may be tested for antimicrobial activity by susceptibility testing in liquid media. Compounds may be dissolved in dimethylsulfoxide and tested in 10 doubling dilutions in the susceptibility assays. The organisms used in the assay may be grown overnight on suitable agar media and then suspended in a liquid medium appropriate for the growth of the organism. The can be was a 0.5 McFarland and a further 1 in 10 dilution can be made into the same liquid medium to prepare the final organism suspension in 100 pt. Plates can be incubated under appropriate conditions at 37° C. for 24 hrs prior to reading. The Minimum Inhibitory Concentration (MIC) may be determined as the lowest drug concentration able to reduce growth by 80% or more.
# [2] = biological target: GyrB ATPase activity (E. coli GyrA, E. coli GyrB) (Escherichia coli, UniProt P0AES6); test: GyrB ATPase inhibition activity assay (ammonium molybdate/malachite green phosphate detection); format: biochemical; conditions: figure quoted may be an average of two or more results
# Method in brief: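 E. coli GyrA/GyrB (2.5 nM each) with 5 μg/ml sheared DNA and 250 μM ATP in 50 mM HEPES pH 7.5, 5.5 mM MgCl2, 75 mM ammonium acetate. Released phosphate detected with ammonium molybdate/malachite green reagent. IC50 may be an average of two or more results.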
# [3] = tested on: MCA445; test: Bacterial susceptibility testing in liquid media (MIC), MCA445; format: cell-based; conditions: strain MCA445
# From the text: as §1
# [4] = tested on: SAU516; test: Bacterial susceptibility testing in liquid media (MIC), SAU516; format: cell-based; conditions: strain SAU516
# From the text: as §1
# [5] = tested on: SPN548; test: Bacterial susceptibility testing in liquid media (MIC), SPN548; format: cell-based; conditions: strain SPN548
# From the text: as §1
# [6] = tested on: EFM073; test: Bacterial susceptibility testing in liquid media (MIC), EFM073; format: cell-based; conditions: strain EFM073
# From the text: as §1
# [7] = tested on: HIN446; test: Bacterial susceptibility testing in liquid media (MIC), HIN446; format: cell-based; conditions: strain HIN446
# From the text: as §1
Compound,MIC [1],IC50 [2],MIC MCA445 [3],MIC SAU516 [4],MIC SPN548 [5],MIC EFM073 [6],MIC HIN446 [7]
"COC(=O)c1cnc(N2CCC(NC(=O)c3[nH]c(C)c(Cl)c3Cl)C3(C2)OCCO3)s1 (centres unmarked) [Example 1, Methyl 2-(10-{[(3,4-dichloro-5-methyl-1H-pyrrol-2-yl)carbonyl]amino}-1,4-dioxa-7-azaspiro[4.5]dec-7-yl)-1,3-thiazole-5-carboxylate]",1 µg/mL,463 nM,,,,,
"CNC(=O)c1nc(N2CCC(NC(=O)c3[nH]c(C)c(Cl)c3Cl)C3(C2)OCCCO3)sc1C(=O)O (centres unmarked) [Example 18, 2-(11-{[(3,4-Dichloro-5-methyl-1H-pyrrol-2-yl)carbonyl]amino}-1,5-dioxa-8-azaspiro[5.5]undec-8-yl)-4-[(methylamino)carbonyl]-1,3-thiazole-5-carboxylic acid]",,< 9.77 nM,< 0.063 µg/mL,0.25 µg/mL,< 0.063 µg/mL,0.25 µg/mL,0.5 µg/mL
"COC1(OC)CN(c2ncc(C(=O)O)s2)CCC1NC(=O)c1[nH]c(C)c(Cl)c1Cl (centres unmarked) [Example 20, 2-(4-{[(3,4-Dichloro-5-methyl-1H-pyrrol-2-yl)carbonyl]amino}-3,3-dimethoxypiperidin-1-yl)-1,3-thiazole-5-carboxylic acid]",,< 67.1 nM,0.5 µg/mL,2 µg/mL,0.13 µg/mL,2 µg/mL,1 µg/mL
